This note sets out measurements from US20220273662A1, “USE OF SILDENAFIL AND ROCK INHIBITORS FOR TREATING STROKE OR SEQUELAE FOLLOWING STROKE” (SOONCHUNHYANG UNIVERSITY INDUSTRY ACADEMY COOPERATION …, priority 2019, published 2022).

Molecules are shown by their SMILES. Counter-ions that a name gives are not always drawn.

Holding throughout (format): in vivo, Sprague-Dawley male rats
Assay [1] relates to MCAo30 acute stroke (cerebral infarction) model. In words: Measurement of infarction volume (TTC staining) after middle cerebral artery occlusion. To be noted: relative to MCAo30 (100% stroke range basis); i.p. sildenafil citrate 20 mg/kg and/or GSK429286A 10 mg/kg, 30 min before or after reperfusion; combination value for both before/after groups. The method, then:
8-week-old Sprague-Dawley male rats weighing 260 to 280 g were used as experimental animals, and the experimental animals were obtained from the Experimental Animal Center, at Soonchunhyang University (Cheonan). All experimental animals were arbitrarily provided with commercially available feed and water under specific temperature, humidity and lighting conditions (light-dark cycle 12:12, 22±2° C., 55±5%). All animal protocols were approved by the Administrative Panel on Laboratory Animal Care of Soonchunhyang University (permit No. SCH16-0024). In performing experiments related to the present invention, all possible efforts were made to prevent the suffering of the experimental animals and to minimize the number of experimental animals used during the experiments. […] Finally, images were produced from TTC-stained coronal section brain slices using a model DP72 digital camera and DP2-BSW microscope digital camera software (Olympus, Japan), the area of ischemic brain damage in each brain slice was measured using image analysis software (ImageJ, NIH, USA). […] The volume of total cerebral infarction was the sum of the core and the ischemic penumbra, the damaged volume was calculated as an average percentage of the hemispherical volume, and the volume of edema was adjusted with reference to the results of previous studies. […]

Assay [2] shares this test system. In words: Open field test (locomotor activity). As to conditions: normal control = 100% (MCAo30 57.4%), combination given after reperfusion.
Experimental: 8-week-old Sprague-Dawley male rats weighing 260 to 280 g were used as experimental animals, and the experimental animals were obtained from the Experimental Animal Center, at Soonchunhyang University (Cheonan). All experimental animals were arbitrarily provided with commercially available feed and water under specific temperature, humidity and lighting conditions (light-dark cycle 12:12, 22±2° C., 55±5%). […] In performing experiments related to the present invention, all possible efforts were made to prevent the suffering of the experimental animals and to minimize the number of experimental animals used during the experiments. […] More specifically, the following experimental drugs were each intraperitoneally administered 30 minutes before reperfusion after middle cerebral artery occlusion and 30 minutes after reperfusion after middle cerebral artery occlusion. i) sildenafil citrate (20 mg/kg/saline, Hanmi Parm. […] An open field black box (60×60×40 cm; length, width, height) was placed in an isolated room without clues, and the experimental animals were placed in the central area of the open field box under diffused light. The distance traveled by the experimental animals was recorded and analyzed for 30 minutes using Ethovision® software, which is a PC-based video motion analysis system. […]
Assay [3] has the same test system. In words: Light-dark box test (anxiety level). To be noted: normal control = 100% (MCAo30 62.08%), combination given after reperfusion.
Experimental: 8-week-old Sprague-Dawley male rats weighing 260 to 280 g were used as experimental animals, and the experimental animals were obtained from the Experimental Animal Center, at Soonchunhyang University (Cheonan). All experimental animals were arbitrarily provided with commercially available feed and water under specific temperature, humidity and lighting conditions (light-dark cycle 12:12, 22±2° C., 55±5%). All animal protocols were approved by the Administrative Panel on Laboratory Animal Care of Soonchunhyang University (permit No. SCH16-0024). […] More specifically, the following experimental drugs were each intraperitoneally administered 30 minutes before reperfusion after middle cerebral artery occlusion and 30 minutes after reperfusion after middle cerebral artery occlusion. i) sildenafil citrate (20 mg/kg/saline, Hanmi Parm. Co., Republic of Korea) ii) GSK429286A (10 mg/kg/DMSO, Sigma, USA) iii) sildenafil citrate (20 mg/kg/saline) and GSK429286A (10 mg/kg/DMSO) A light-dark box (45×27×27 cm; length, width, height) was divided into two compartments, and more specifically, three-fifths was a bright compartment and two-fifths was a dark compartment. Each compartment was connected by a 9×9 cm entrance located on the floor. […] Here, sildenafil and the ROCK inhibitor were co-administered after reperfusion after middle cerebral artery occlusion.
Assay [4] shares this test system. The experiment in a line: Barnes maze test (cognitive function, escape time). As to conditions: compared to normal control, MCAo30 about 3-fold longer than normal control.
Experimental: All experimental animals were arbitrarily provided with commercially available feed and water under specific temperature, humidity and lighting conditions (light-dark cycle 12:12, 22±2° C., 55±5%). […] Co., Republic of Korea) ii) GSK429286A (10 mg/kg/DMSO, Sigma, USA) iii) sildenafil citrate (20 mg/kg/saline) and GSK429286A (10 mg/kg/DMSO) A Barnes maze consisted of a circular platform (122 cm in diameter) with 20 holes around the same distance and elevated 105 cm from the floor. Four different visual cues were placed on each quadrant wall surrounding the platform at a height that makes it easy to observe experimental animals, and one hole (escape hole) in the quadrant area includes an escape chamber under the platform. Further, bedding was added to the escape chamber for the safety of experimental animals. […] More specifically, a metronome was used to generate 80 Hz noise and to maintain the illuminance measured at the center of the platform at 300 lux. […] 10 seconds later, when the cylinder was removed, the experimental animal explored the platform from the center and this activity was recorded by a video camera. […] The distance and duration traveled from the quadrant area where the escape chamber connected to the escape hole is located was analyzed by Ethovision® software, and the waiting time to reach the escape chamber connected to the escape hole was manually analyzed.
Assay [5] has the same test system. In words: Measurement of fEPSP slope (synaptic plasticity, hippocampal CA1 LTP). As to conditions: for fEPSP slope: MCAo30 84.11%.
Experimental: 8-week-old Sprague-Dawley male rats weighing 260 to 280 g were used as experimental animals, and the experimental animals were obtained from the Experimental Animal Center, at Soonchunhyang University (Cheonan). All experimental animals were arbitrarily provided with commercially available feed and water under specific temperature, humidity and lighting conditions (light-dark cycle 12:12, 22±2° C., 55±5%). […] More specifically, the following experimental drugs were each intraperitoneally administered 30 minutes before reperfusion after middle cerebral artery occlusion and 30 minutes after reperfusion after middle cerebral artery occlusion. i) sildenafil citrate (20 mg/kg/saline, Hanmi Parm. Co., Republic of Korea) ii) GSK429286A (10 mg/kg/DMSO, Sigma, USA) iii) sildenafil citrate (20 mg/kg/saline) and GSK429286A (10 mg/kg/DMSO) Field potentials (fEPSP) were recorded at a slightly modified part from CA1 of the hippocampus. After a behavioral test, the animals were anesthetized intraperitoneally using urethane (1.5 g/kg) and placed in a stereotaxic frame. The rectal temperature during surgery was maintained at 37±0.3° C. using a temperature controller (Harvard Instruments, USA). Next, the scalp was opened and separated, and a hole was made through the skull to introduce electrodes. The coordinates (in mm) based on bregma (a junction of the coronal suture and the sagittal suture in the skull) are as follows. […] The depth of the electrodes was finally determined by observing whether the induced response was optimized. The fEPSP was adjusted to about 60% of the maximum response size for testing, and stimuli were generated by a BNC-2110 apparatus (National Instruments, USA) and a Digital Stimulus Isolation unit (Getting Instruments, CA, USA). The response of pyramidal neurons to the Schaffer collateral stimulus was recorded using a [MUT].C. pre-amplifier (3-1000 Hz bandpass, Astro-Med Inc.) and analyzed using […] . […] A stable baseline was recorded for 30 minutes to 60 minutes. […] The response of fEPSP for the age-matched control was also measured using the same method.

In the case of `CC1=C(C(=O)Nc2cc3cn[nH]c3cc2F)C(c2ccc(C(F)(F)F)cc2)CC(=O)N1` (stereo not shown) [ROCK inhibitor, N-(6-fluoro-1H-indazol-5-yl)-6-methyl-2-oxo-4-[4-(trifluoromethyl)phenyl]-3,4-dihydro-1H-pyridine-5-carboxamide], the “damage to brain tissue after the onset of stroke (infarction volume)” value in assay [1] was 21.28%. Also, the locomotor activity in assay [2] is recorded as 71%. For the same molecule, in assay [3], the “time in which rats stayed in a bright place compared to the normal control” value was 84.26%. The “escape time (in words)” value in assay [4] is listed as “level similar to that of the normal control”.

In the case of `CCCc1nn(C)c2c(=O)[nH]c(-c3cc(S(=O)(=O)N4CCN(C)CC4)ccc3OCC)nc12` [sildenafil, sildenafil citrate], in assay [1], the “damage to brain tissue after the onset of stroke (infarction volume)” value turned out to be 26.71%. For the same molecule, the locomotor activity in assay [2] stood at 70.8%. The “time in which rats stayed in a bright place compared to the normal control” value in assay [3] is recorded as 63.63%. Also, the fEPSP slope amounted to 158.31% in assay [5] (administered after reperfusion after middle cerebral artery occlusion) and 102.35% in assay [5] (administered before reperfusion after middle cerebral artery occlusion). Further, the “fold improved fEPSP slope, group after reperfusion compared to group before reperfusion” value in assay [5] (sildenafil alone, after vs before reperfusion) was “about 4.06 fold”.
